Values belong to the compound of their own block, whether it stands above or below them.
Columns and labels:
IL-1α = IL-1α expression in LPS-stimulated RAW 264.7 cells (Western blot); format: cell-based, murine; conditions: parthenolide 1 μg/ml with DTT 100 μM, 2-ME 50 μM or Cys 150 μM; LPS 1 μg/ml, 8h; FIG. 6B
Procedure: (§1) Rat (Sprague-Dawley) alveolar macrophages were collected by broncho-alveolar lavage as described by Lee et al., J. Biol. Chem., vol. 267, pp. 25934-25938 (1992). The murine macrophage cell line RAW 264.7 (ATCC no. TIB-71) was cultured in Dubecco's modified Eagle's medium (DMEM) containing 10% heat-inactivated fetal bovine serum (FBS, Intergen). For the cyclooxygenase activity assay, cells were seeded in 24 well plates, and after near-confluency, cells were treated with aspirin (250 μM) for 2.5h to inactivate endogenous cyclooxygenase. […] COX activity was determined by measuring prostaglandin E2 concentrations in cells incubated with arachidonic acid (30 μM) for 10 minutes as described in Lee et al. (1992).
(§2) The protein levels of COX-2 and GAPDH were assessed by Western blot analysis using polyclonal antibodies as described in Lee et al. (1992). Polyclonal antibodies for IL-1α and JNK-1 were purchased from Genzyme and Santa Cruz Biotech, respectively.
(§3) Parthenolide suppressed LPS-stimulated tyrosine phosphorylation of various proteins in RAW 264.7 cells as assessed by antiphosphotyrosine immunoblot, depicted in FIG. 5A. This inhibition was correlated with the suppressed expression of COX-2 and IL-1α. RAW 264.7 cells were pretreated with parthenolide in various concentrations or with herbimycin A (0.5 μg/ml) for 3h, and then stimulated with LPS (1 μg/ml) in the presence of the inhibitors for 30 min. […] Therefore, the extent of tyrosine phosphorylation of JNK-1 was assessed by the electrophoretic mobility shift of phosphorylated JNK-1 as shown in FIG. 5B. Parthenolide inhibited tyrosine phosphorylation of JNK-1. Another protein tyrosine kinase inhibitor, herbimycin A ([…]), inhibited tyrosine phosphorylation of the MAPK subfamily.
(§4) The mechanism by which parthenolide inhibits protein tyrosine phosphorylation is not currently known. It has been speculated that the tyrosine kinase inhibitor herbimycin A inactivates p60^v-src kinase by irreversibly binding to the sulphydryl (SH) groups of p60^v-src kinase. Y. Uehara et al., Biochem. Biophys. Res. Commun., vol. 163, pp. 803-809 (1989). The inactivation by herbimycin may occur through conjugation between highly polarized double bonds in the benzoquinone moiety of herbimycin A and the SH group of sulphydryl compounds. Without wishing to be bound by this theory, the α-methylenebutyrolactone in parthenolide may interact with biological nucleophiles such as sulphydryl groups. Indeed, pretreating cells with sulphydryl compounds abrogated the inhibitory effect of parthenolide on LPS-induced activation of MAPKs as shown in FIG. 6A. […]

COX-2 [1] = assay: COX-2 expression in LPS-stimulated RAW 264.7 cells (Western blot); format: cell-based, murine; conditions: parthenolide 1 μg/ml with DTT 100 μM, 2-ME 50 μM or Cys 150 μM; LPS 1 μg/ml, 8h; FIG. 6B
Procedure: as §1, §2, §3, §4

MAPKs = assay: Tyrosine phosphorylation / activation of MAPKs in RAW 264.7 cells; format: cell-based, murine; conditions: for effect on parthenolide inhibition of LPS-induced activation of MAPKs: parthenolide 1 μg/ml with DTT 100 μM, 2-ME 50 μM or Cys 150 μM, LPS 1 μg/ml, 30 min, FIG. 6A
Procedure: as §1
(§5) This detection technique was carried out essentially as described in Chanmugan et al. (1995) using 4G10 monoclonal antiphosphotyrosine antibody (UBI) and the ECL detection system (Amersham).
as §3
The mechanism by which parthenolide inhibits protein tyrosine phosphorylation is not currently known. It has been speculated that the tyrosine kinase inhibitor herbimycin A inactivates p60^v-src kinase by irreversibly binding to the sulphydryl (SH) groups of p60^v-src kinase. Y. Uehara et al., Biochem. Biophys. Res. Commun., vol. 163, pp. 803-809 (1989). The inactivation by herbimycin may occur through conjugation between highly polarized double bonds in the benzoquinone moiety of herbimycin A and the SH group of sulphydryl compounds. Without wishing to be bound by this theory, the α-methylenebutyrolactone in parthenolide may interact with biological nucleophiles such as sulphydryl groups. Indeed, pretreating cells with sulphydryl compounds abrogated the inhibitory effect of parthenolide on LPS-induced activation of MAPKs as shown in FIG. 6A. In FIG. 6, RAW 264.7 cells were pretreated with parthenolide (1 μg/ml) in the presence of DTT (dithiothreitol, 100 μM), 2-ME (2-mercaptoethanol, 50 μM), or Cys (L-cysteine, 150 μM), and were then stimulated with LPS (1 μg/ml). Cells were incubated for 30 min for antiphosphotyrosine immunoblot analysis (FIG. 6A) and 8h for COX-2 and IL-1α Western blot analyses (FIG. 6B). […] Whether parthenolide inhibits protein tyrosine phosphorylation by directly inhibiting PTKs or by inhibiting other target protein(s) that affect the activity of PTKs is not currently known.

COX-2 [2] = assay: Inhibition of the expression of COX-2 in LPS-stimulated macrophages (Table 1); format: cell-based; conditions: for IC50, inhibiting the expression of COX-2: IC50 determined at multiple dose levels; for inhibitory activity (COX-2 expression), in words: comparison among tested compounds
Procedure: Rat (Sprague-Dawley) alveolar macrophages were collected by broncho-alveolar lavage as described by Lee et al., J. Biol. Chem., vol.
Alveolar macrophages pretreated with aspirin were incubated with LPS (10 μg/ml) and various concentrations of parthenolide for 16h. The activity of de novo synthesized COX-2 was determined by measuring the levels of PGE2 produced from exogenous arachidonic acid. Activity of TNFα was determined by bioassay using L929 cells as described by Aggarwal et al., J. Biol. Chem., vol. […] Values in FIG. 2 are the means of triplicate samples for TNFα and duplicate samples for PGE2.

tumor = conditions: cited from earlier work
[3] = test system: epidermal growth factor receptor; conditions: in vitro; cited from earlier work
ERK-1 [4] = assay: Kinase activity of ERK-1 in RAW 264.7 cells (in-gel kinase assay, MBP substrate); format: cell-based, murine; conditions: 3h pretreatment, LPS 1 μg/ml 30 min; FIG. 5
Procedure: as §1
(§6) This assay was performed according to the method described by Kameshita et al., Anal. Biochem., vol. 183, pp. 139-143 (1989) using myelin basic protein (MBP) as a substrate.
(§7) Parthenolide suppressed LPS-stimulated tyrosine phosphorylation of various proteins in RAW 264.7 cells as assessed by antiphosphotyrosine immunoblot, depicted in FIG. 5A. This inhibition was correlated with the suppressed expression of COX-2 and IL-1α. […] Therefore, the extent of tyrosine phosphorylation of JNK-1 was assessed by the electrophoretic mobility shift of phosphorylated JNK-1 as shown in FIG. 5B. […]

ERK-1 [5] = assay: Tyrosine phosphorylation of ERK-1 in RAW 264.7 cells (antiphosphotyrosine immunoblot); format: cell-based, murine; conditions: 3h pretreatment, LPS 1 μg/ml 30 min; FIG. 5A
Procedure: as §1, §5, §7

ERK-2 [6] = assay: Kinase activity of ERK-2 in RAW 264.7 cells (in-gel kinase assay, MBP substrate); format: cell-based, murine; conditions: 3h pretreatment, LPS 1 μg/ml 30 min; FIG. 5
Procedure: as §1, §6, §7

ERK-2 [7] = assay: Tyrosine phosphorylation of ERK-2 in RAW 264.7 cells (antiphosphotyrosine immunoblot); format: cell-based, murine; conditions: 3h pretreatment, LPS 1 μg/ml 30 min; FIG. 5A
Procedure: as §1, §5, §7

Compound: O[C@H](CS)[C@H](O)CS (racemic) [DTT, dithiothreitol]
effect on parthenolide-inhibited expression of IL-1α (IL-1α): recovered expression | effect on parthenolide-inhibited expression of COX-2 (COX-2 [1]): recovered expression | effect on parthenolide inhibition of LPS-induced activation of MAPKs (MAPKs): abrogated

Compound: OCCS [Compound 2-ME, 2-mercaptoethanol]
effect on parthenolide-inhibited expression of IL-1α (IL-1α): recovered expression | effect on parthenolide-inhibited expression of COX-2 (COX-2 [1]): recovered expression | effect on parthenolide inhibition of LPS-induced activation of MAPKs (MAPKs): abrogated

Compound: CC1=C2[C@H]3OC(=O)[C@@H](C)[C@@H]3CC[C@@]2(C)C=CC1=O [Compound 13, Santonin, reference compound]
IC50, inhibiting the expression of COX-2 (COX-2 [2]): > 100 µg/mL

Compound: N[C@@H](CS)C(=O)O [Cys, L-cysteine]
effect on parthenolide-inhibited expression of IL-1α (IL-1α): recovered expression | effect on parthenolide-inhibited expression of COX-2 (COX-2 [1]): recovered expression | effect on parthenolide inhibition of LPS-induced activation of MAPKs (MAPKs): abrogated

Compound: O=c1c(-c2ccc(O)cc2)coc2cc(O)cc(O)c12 [genistein]
tyrosine-specific protein kinase activity of the EGF receptor [3]: inhibited

Compound: C=C1C(=O)O[C@@H]2C[C@@H](C)[C@@H]3C=CC(=O)[C@@]3(C)[C@@H](O)[C@H]12 [helenalin, reference compound]
antitumor activity (tumor): some antitumor activity

Compound: COC1C=CC=C(C)C(=O)NC2=CC(=O)C=C(C2=O)C(OC)C(C)CC(OC)C(OC)C(C)C=C(C)C1OC(N)=O (stereo not shown) [herbimycin A, reference compound]
kinase activity of ERK-1 (ERK-1 [4]): dose-dependent inhibition | tyrosine phosphorylation of ERK-1 (ERK-1 [5]): dose-dependent inhibition | kinase activity of ERK-2 (ERK-2 [6]): dose-dependent inhibition | tyrosine phosphorylation of ERK-2 (ERK-2 [7]): dose-dependent inhibition | tyrosine phosphorylation of the MAPK subfamily (MAPKs; 3h pretreatment (herbimycin A 0.5 μg/ml), LPS 1 μg/ml 30 min): inhibited

The next lines start with results.

IC50, inhibiting the expression of COX-2 (COX-2 [2]): 0.5 µg/mL
Compound: C=C1C(=O)O[C@@H]2/C=C(\C)[C@@H]3O[C@@H]3/C=C(/C(=O)OC)[C@H](O)[C@@H](OC(=O)[C@]3(C)O[C@@H]3C)[C@@H]12 [Compound 5, Melampodin A]
inhibitory activity (COX-2 expression), in words (COX-2 [2]): activities similar to that of parthenolide

IC50, inhibiting the expression of COX-2 (COX-2 [2]): 1.3 µg/mL
Compound: C=C1C(=O)O[C@@H]2[C@H]1CC[C@H](C)[C@]1(CCC(=O)O1)[C@@]2(C)O [Compound 8, Psilostachyin A]

IC50, inhibiting the expression of COX-2 (COX-2 [2]): 1.6 µg/mL
Compound: C=C1C(=O)O[C@@H]2/C=C(\C)CC/C=C(\C)CC[C@@H]12 [Compound 9, Costunolide]

IC50, inhibiting the expression of COX-2 (COX-2 [2]): 5.5 µg/mL
Compound: C[C@@H]1C[C@@H]2OC(=O)[C@]3(C)[C@H]2[C@@H](OC3(C)O)[C@]2(C)C(=O)C=C[C@@H]12 (stereo partly shown) [Compound 10, Tenulin]
inhibitory activity (COX-2 expression), in words (COX-2 [2]): significantly less than that of compounds 1-9 | antitumor activity (tumor): antitumor activity

IC50, inhibiting the expression of COX-2 (COX-2 [2]): > 100 µg/mL
Compound: CC1=CCCC2(C)OC2C2OC(=O)C(C)C2CC1 (stereo not shown) [Compound 11, 11,13-dihydroparthenolide]
inhibitory activity (COX-2 expression), in words (COX-2 [2]): loss of inhibitory activity

IC50, inhibiting the expression of COX-2 (COX-2 [2]): > 100 µg/mL
Compound: CC1C(=O)OC2C1CCC1(C)OC1CCC1(C)OC21 (stereo not shown) [Compound 12, 1(10)epoxy-11,13-dihydroparthenolide]
inhibitory activity (COX-2 expression), in words (COX-2 [2]): loss of inhibitory activity

IC50, inhibiting the expression of COX-2 (COX-2 [2]): 0.1 µg/mL
Compound: Encelin [Compound 2]
inhibitory activity (COX-2 expression), in words (COX-2 [2]; listed as Encelin): most active compound tested | inhibitory activity (COX-2 expression), in words (COX-2 [2]; listed as encelin): highest inhibitory activity

Source: patent publication US5905089A, “Use of sesquiterpene lactones for treatment of severe inflammatory disorders” (Board of Supervisors of Louisiana State University and …, priority 1998, dated 1999)
